Measured values published in PubChem BioAssay (NCI).
Several values for one entry are separate records, joined by “and”; a condition that tells them apart may be missing. Equal entries are not always repeated.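 All cell lines were grown in 96-well plates and treated with compound for 48 hours. Here, GI50 denotes the concentration required for 50% inhibition of growth. The concentration for full growth arrest is given as TGI.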 Where a SMILES comes first, the peptide text is derived from it.

Key:
Experiment in all cases: inhibition of tumour cell growth, NCI panel, 48 h
EKVX NSCLC = test system: EKVX NSCLC
A549 NSCLC = test system: A549 NSCLC
NCI-H460 lung = test system: NCI-H460 lung
HOP-62 NSCLC = test system: HOP-62 NSCLC
SK-MEL-28 melanoma = test system: SK-MEL-28 melanoma
SNB-75 CNS = test system: SNB-75 CNS
SN12C renal = test system: SN12C renal
RPMI-8226 leukemia = test system: RPMI-8226 leukemia
SK-OV-3 ovarian = test system: SK-OV-3 ovarian
MOLT-4 leukemia = test system: MOLT-4 leukemia
MDA-MB-435 = test system: MDA-MB-435

CC1C(=O)CC(c2cccs2)N(N=O)C1c1cccs1 (centres undefined)
TGI (EKVX NSCLC): > 100 µM | TGI (A549 NSCLC): > 100 µM | TGI (NCI-H460 lung): > 100 µM | TGI (HOP-62 NSCLC): > 100 µM | TGI (SK-MEL-28 melanoma): > 100 µM | TGI (SNB-75 CNS): > 74 µM | TGI (SN12C renal): > 100 µM | TGI (RPMI-8226 leukemia): 67.2 µM | TGI (SK-OV-3 ovarian): > 81.2 µM | TGI (MOLT-4 leukemia): 73.7 µM

N#CC1=C2SCCN2C(=O)C(C#N)C12CCCCC2 (centres undefined)
TGI (EKVX NSCLC): > 100 µM | TGI (A549 NSCLC): > 100 µM | TGI (NCI-H460 lung): > 100 µM | TGI (HOP-62 NSCLC): > 100 µM | TGI (SK-MEL-28 melanoma): > 100 µM | TGI (SNB-75 CNS): > 100 µM | TGI (SN12C renal): > 100 µM | TGI (MDA-MB-435): > 100 µM | TGI (RPMI-8226 leukemia): > 100 µM | TGI (SK-OV-3 ovarian): > 100 µM | TGI (MOLT-4 leukemia): > 100 µM

CN(Cc1cn(O)c2nc(=N)nc(N)c-2n1)c1ccc(C(=O)NC23CC4CC(CC(C4)C2)C3)cc1
TGI (EKVX NSCLC): > 100 µM | TGI (NCI-H460 lung): > 100 µM | TGI (HOP-62 NSCLC): > 100 µM | TGI (SK-MEL-28 melanoma): > 100 µM | TGI (SNB-75 CNS): 76.2 µM | TGI (SN12C renal): > 100 µM | TGI (MDA-MB-435): > 100 µM | TGI (RPMI-8226 leukemia): > 100 µM | TGI (SK-OV-3 ovarian): > 100 µM | TGI (MOLT-4 leukemia): > 100 µM

CN(C)CCNC(=O)c1cc(Cl)cc2cc3ccccc3nc12
TGI (EKVX NSCLC): 4.81 µM | TGI (A549 NSCLC): 3.88 µM | TGI (NCI-H460 lung): 2.41 µM | TGI (HOP-62 NSCLC): 5.04 µM | TGI (SK-MEL-28 melanoma): 3.76 µM | TGI (SNB-75 CNS): 6.09 µM | TGI (SN12C renal): 6.9 µM | TGI (RPMI-8226 leukemia): 8.29 µM | TGI (SK-OV-3 ovarian): 9.27 µM

CCOC(=O)CCC(C(=O)OCC)n1nc2ccc(Nc3c(C)[n+]([O-])c4cc(F)c(OCC)cc4[n+]3[O-])cc2n1 (centres undefined)
TGI (EKVX NSCLC): 98.1 µM | TGI (A549 NSCLC): > 100 µM | TGI (NCI-H460 lung): > 100 µM | TGI (HOP-62 NSCLC): 40.8 µM | TGI (SNB-75 CNS): 32.9 µM | TGI (SN12C renal): > 100 µM | TGI (MDA-MB-435): > 100 µM | TGI (RPMI-8226 leukemia): > 100 µM | TGI (SK-OV-3 ovarian): > 100 µM | TGI (MOLT-4 leukemia): > 100 µM

NC(=O)C1CCCN1C(=O)C(N)Cc1ccccc1 (stereo not drawn) (H-Phe-Pro-NH2; configuration not given here)
TGI (EKVX NSCLC): > 100 µM | TGI (A549 NSCLC): > 100 µM | TGI (NCI-H460 lung): > 100 µM | TGI (HOP-62 NSCLC): > 100 µM | TGI (SK-MEL-28 melanoma): > 100 µM | TGI (MDA-MB-435): > 100 µM | TGI (RPMI-8226 leukemia): > 100 µM | TGI (MOLT-4 leukemia): > 100 µM

NC(CCOCCP(=O)(O)CCC1C=CC=CC1)C(=O)O (centres undefined)
TGI (EKVX NSCLC): > 100 µM | TGI (A549 NSCLC): > 100 µM | TGI (NCI-H460 lung): > 100 µM | TGI (SK-MEL-28 melanoma): > 100 µM | TGI (SNB-75 CNS): > 100 µM | TGI (SN12C renal): > 100 µM | TGI (MDA-MB-435): > 100 µM | TGI (RPMI-8226 leukemia): > 100 µM | TGI (SK-OV-3 ovarian): > 100 µM | TGI (MOLT-4 leukemia): > 100 µM

O=C(CSCC(=O)N/N=C/c1ccccc1)N/N=C\c1ccccc1
TGI (EKVX NSCLC): > 100 µM | TGI (A549 NSCLC): > 100 µM | TGI (NCI-H460 lung): > 100 µM | TGI (HOP-62 NSCLC): > 100 µM | TGI (SK-MEL-28 melanoma): > 100 µM | TGI (SNB-75 CNS): > 100 µM | TGI (SN12C renal): > 100 µM | TGI (MDA-MB-435): > 100 µM | TGI (RPMI-8226 leukemia): > 100 µM | TGI (SK-OV-3 ovarian): > 100 µM | TGI (MOLT-4 leukemia): > 100 µM

CCCCCCCCCCCCCCCCCCNc1ccn(C2OC(CO)C(OP(=O)(O)OCC(O)COP(=O)(O)OCC3OC(n4cc(F)c(NCCCCCCCCCCCCCCCCCC)nc4=O)CC3O)C2O)c(=O)n1 (centres undefined)
TGI (EKVX NSCLC): > 50 µM | TGI (A549 NSCLC): > 50 µM | TGI (NCI-H460 lung): > 50 µM | TGI (HOP-62 NSCLC): > 50 µM | TGI (SK-MEL-28 melanoma): > 50 µM | TGI (SNB-75 CNS): > 50 µM | TGI (SN12C renal): > 50 µM | TGI (MDA-MB-435): > 50 µM | TGI (RPMI-8226 leukemia): > 50 µM | TGI (SK-OV-3 ovarian): > 50 µM

OCC(O)CNc1ncnc2ccccc12 (centres undefined)
TGI (EKVX NSCLC): > 100 µM | TGI (A549 NSCLC): > 100 µM | TGI (NCI-H460 lung): > 100 µM | TGI (HOP-62 NSCLC): > 100 µM | TGI (SK-MEL-28 melanoma): > 100 µM | TGI (SNB-75 CNS): > 100 µM | TGI (SN12C renal): > 100 µM | TGI (MDA-MB-435): > 100 µM | TGI (RPMI-8226 leukemia): > 100 µM | TGI (SK-OV-3 ovarian): > 100 µM | TGI (MOLT-4 leukemia): > 100 µM

CCCCCCCCCCCCCC1=C(O)C(=O)C(CC2=C(O)C(=O)C(CCCCCCCCCCCCC)=C(O)C2=O)=C(O)C1=O
TGI (EKVX NSCLC): > 100 µM | TGI (A549 NSCLC): > 100 µM | TGI (SK-MEL-28 melanoma): > 100 µM | TGI (SNB-75 CNS): 83 µM | TGI (SN12C renal): > 100 µM | TGI (SK-OV-3 ovarian): > 100 µM

CN(CC(=O)O)Cc1c(O)c(Cl)cc(Cl)c1Cl
TGI (EKVX NSCLC): > 100 µM | TGI (A549 NSCLC): > 100 µM | TGI (NCI-H460 lung): 75.4 µM | TGI (HOP-62 NSCLC): > 100 µM | TGI (SK-MEL-28 melanoma): 97.4 µM | TGI (SNB-75 CNS): > 100 µM | TGI (SN12C renal): > 100 µM | TGI (MDA-MB-435): > 100 µM | TGI (RPMI-8226 leukemia): > 100 µM | TGI (SK-OV-3 ovarian): > 100 µM

Clc1cc(Cl)c2cc3cccc[n+]3cc2c1Cl
TGI (EKVX NSCLC): 30.8 µM | TGI (A549 NSCLC): 34.1 µM | TGI (NCI-H460 lung): 32.2 µM | TGI (HOP-62 NSCLC): 31.6 µM | TGI (SK-MEL-28 melanoma): 29.9 µM | TGI (SNB-75 CNS): 24.7 µM | TGI (SN12C renal): 39.5 µM | TGI (MDA-MB-435): 32.7 µM | TGI (RPMI-8226 leukemia): 45.7 µM | TGI (SK-OV-3 ovarian): 30.1 µM | TGI (MOLT-4 leukemia): 31.3 µM

OC[C@H]1NC[C@@H](O)[C@@H](O)[C@H]1O
TGI (NCI-H460 lung): > 100 µM | TGI (HOP-62 NSCLC): > 100 µM | TGI (SNB-75 CNS): > 100 µM | TGI (SN12C renal): > 100 µM | TGI (MDA-MB-435): > 100 µM | TGI (RPMI-8226 leukemia): > 100 µM | TGI (SK-OV-3 ovarian): > 100 µM | TGI (MOLT-4 leukemia): > 100 µM

C[C@@H]1C(=O)O[C@H]1[C@H](O)CO
TGI (EKVX NSCLC): > 100 µM | TGI (A549 NSCLC): > 100 µM | TGI (NCI-H460 lung): > 100 µM | TGI (HOP-62 NSCLC): > 100 µM | TGI (SK-MEL-28 melanoma): > 100 µM | TGI (SNB-75 CNS): > 100 µM | TGI (SN12C renal): > 100 µM | TGI (MDA-MB-435): > 100 µM | TGI (RPMI-8226 leukemia): > 100 µM | TGI (SK-OV-3 ovarian): > 100 µM | TGI (MOLT-4 leukemia): > 100 µM

Nc1[nH]c(=S)nc2nc3c(c(-c4ccccc4)c12)CCCC3
TGI (EKVX NSCLC): > 100 µM | TGI (A549 NSCLC): > 100 µM | TGI (NCI-H460 lung): > 100 µM | TGI (HOP-62 NSCLC): > 100 µM | TGI (SNB-75 CNS): > 100 µM | TGI (SN12C renal): > 100 µM | TGI (MDA-MB-435): > 100 µM | TGI (RPMI-8226 leukemia): > 100 µM | TGI (SK-OV-3 ovarian): > 100 µM | TGI (MOLT-4 leukemia): > 100 µM

CCN(CC)CC[n+]1ccc2c(C)c3[nH]c4ccc(O)cc4c3c(C)c2c1
GI50 (EKVX NSCLC): 2.03 µM | TGI (EKVX NSCLC): 38.8 µM and 14.8 µM | GI50 (A549 NSCLC): 1.5 µM | TGI (A549 NSCLC): 30.6 µM and 43.6 µM | GI50 (NCI-H460 lung): 0.147 µM | TGI (NCI-H460 lung): 13.3 µM and 3.45 µM | TGI (HOP-62 NSCLC): 13.4 µM and 18.9 µM | GI50 (SK-MEL-28 melanoma): 9.07 µM | TGI (SK-MEL-28 melanoma): 21.3 µM and 44.8 µM | GI50 (SNB-75 CNS): 0.523 µM | TGI (SNB-75 CNS): 7.51 µM and 2.83 µM | GI50 (SN12C renal): 0.211 µM | TGI (SN12C renal): 6.42 µM and 3.25 µM | TGI (MDA-MB-435): 23.1 µM | GI50 (RPMI-8226 leukemia): 3.41 µM | TGI (RPMI-8226 leukemia): 43.4 µM and 35.6 µM | GI50 (SK-OV-3 ovarian): 5.94 µM | TGI (SK-OV-3 ovarian): 66.9 µM and 58.4 µM | GI50 (MOLT-4 leukemia): 0.181 µM | TGI (MOLT-4 leukemia): 11 µM and 12.4 µM

COC(=O)C1=C(C)N2CCSC2(C)C(C(=O)OC)C1c1cccc(Cl)c1 (centres undefined)
TGI (EKVX NSCLC): 42.1 µM | TGI (A549 NSCLC): 65.3 µM | TGI (NCI-H460 lung): 74.5 µM | TGI (HOP-62 NSCLC): 38.2 µM | TGI (SK-MEL-28 melanoma): 46.9 µM | TGI (SNB-75 CNS): 42.9 µM | TGI (RPMI-8226 leukemia): 81.7 µM | TGI (MOLT-4 leukemia): 45.6 µM
